Experimental data reported in the RepoRT retention time repository (doi:10.1021/acs.analchem.2c02893).

Assay: RP, Thermo Scientific Acclaim RSLC 120 C18, 100 × 2.1 mm, 2.2 µm, 30 °C, 0.2 mL/min, estimated dead time 1.1 min; A: 90% water + 10% methanol + 0.01% formic acid + 5 mM ammonium formate, pH 3.61; B: methanol + 0.01% formic acid + 5 mM ammonium formate, pH 3.61; gradient (min/%B) 0/1 1/1 2/39 13/99.9 15/99.9 15.1/1 20.1/1
Conditions: stereoisomer not certain

Row | SMILES | LC retention time [min]
1 | CN(C)CCC(c1ccc(Br)cc1)c1ccccn1 (stereo unspecified) [Brompheniramine] | 6.56
2 | CC(Cc1ccccc1)N1C=C(NC(=O)N=C2C=CC(=O)C=C2)ON1 (stereo unspecified) [Mesocarb-P-Hydroxy] | 7.24
3 | CCCN1CCCCC1C(=O)Nc1c(C)cccc1C (stereo unspecified) [Ropivacaine] | 5.39
4 | c1ccc(CN(CCN2CCCC2)c2ccccc2)cc1 [Histapyrrodine] | 7.19
5 | O=C(NC12CC3CC(CC(C3)C1)C2)c1nn(CCCCCF)c2ccccc12 [AKB48-5F (5F-APINACA)] | 12.9
6 | COC(=O)C1C(O)CC2CCC1N2C (stereo unspecified) [EME (Ecgonine methyl ester)] | 1.38
7 | CN(C)CCN1C(=O)c2ccccc2Nc2cc(Cl)ccc21 [Clobenzepam] | 6.32
8 | Clc1ccc2c(c1)N=C(N1CCNCC1)c1ccccc1N2 [Clozapine-Nor] | 7.29
9 | CCN(CC)CCOC(=O)C1(C2CCCCC2)CCCCC1 [Dicycloverine] | 9.99
10 | CCn1nc(C(=O)O)c(=O)c2cc3c(cc21)OCO3 [Cinoxacin] | 5.32
11 | CC=C1CC(C)C(C)(O)C(=O)OCC2=CCN3CCC(OC1=O)C23 (stereo unspecified) [Senecionine] | 4.62
12 | CN1C2CCCC1CC(NC(=O)c1nn(C)c3ccccc13)C2 (stereo unspecified) [Granisetron] | 4.99
13 | Cc1ccc2c(-c3ccccc3)nc(=O)n(C(C)C)c2c1 [Proquazone] | 9.61
14 | Cc1nnc2n1-c1ccc(Br)cc1C(c1ccccc1F)=NC2 [Flubromazolam] | 8.04
15 | CNC1=C(c2cccc(C(F)(F)F)c2)C(=O)C(c2ccccc2)O1 (stereo unspecified) [Flurtamone] | 9.14
16 | CCCCCCCCCCCC(CC1OC(=O)C1CCCCCC)OC(=O)C(CC(C)C)NC=O (stereo unspecified) [Orlistat (Na)] | 14.6
17 | CC(C)(C)C(O)C(=Cc1ccc(Cl)cc1)n1cncn1 (stereo unspecified) [Uniconazole] | 10.5
18 | CCN(CC)CCOC(=O)C(O)(c1ccccc1)c1ccccc1 [Benactyzine] | 6.08
19 | O=C(OC1CN2CCC1CC2)N1CCc2ccccc2C1c1ccccc1 (stereo unspecified) [Solifenacin] | 7.95
20 | CCCCN(C)C(=O)Nc1ccc(Cl)c(Cl)c1 [Neburon] | 10.7
21 | CCCC(=O)OC1(C(=O)CCl)C(C)CC2C3CCC4=CC(=O)C=CC4(C)C3(F)C(=O)CC21C (stereo unspecified) [Clobetasone butyrate] | 11.3
22 | CCOC(=O)C1(c2ccccc2)CCC=CC1NC (stereo unspecified) [Tilidine-Nor] | 5.28

Row | SMILES | LC retention time [min]
23 | CCc1cc2c(s1)-n1cnnc1CN=C2c1ccccc1Cl [Metizolam (Desmethyletizolam)] | 7.93
24 | CNCC(O)c1cccc(O)c1 (stereo not drawn) [Phenylephrine (broad peak)] | 1.93
25 | CC(C)(C)C(O)C(=Cc1ccc(Cl)cc1Cl)n1cncn1 (stereo unspecified) [Diniconazole] | 11.5
26 | COc1ccccc1OCC(O)COC(N)=O (stereo unspecified) [Methocarbamol] | 5.21
27 | CCOP(=S)(OCC)ON=C(C#N)c1ccccc1 [Phoxim] | 11.2
28 | CN1CCCC1CCOC(C)(c1ccccc1)c1ccc(Cl)cc1 (stereo unspecified) [Clemastine] | 9.31
29 | OC(c1ccccc1)(c1ccccc1)C1CCCCN1 (stereo unspecified) [Pipradrol] | 5.78
30 | COC(=O)NS(=O)(=O)c1ccc(N)cc1 [Asulam] | 3.41
31 | Cc1c(C(=O)NN2CCCCC2)nn(-c2ccc(Cl)cc2Cl)c1-c1ccc(Cl)cc1 [Rimonabant] | 12.8
32 | CCOC(=O)c1ccc(N)cc1 [Benzocaine] | 6.27
33 | CNc1c(C)n(C)n(-c2ccccc2)c1=O [Methylaminophenazone (4-)] | 4.74
34 | CCCOP(=O)(OCCC)Oc1ccc(SC)cc1 [Propaphos] | 10.8
35 | CSc1nc2ccccc2s1 [Benzothiazole- 2-Me-S] | 9.79
36 | CC(C)C(Br)C(=O)NC(N)=O (stereo unspecified) [Bromural (Bromisoval)] | 6.17
37 | Cc1ccc(S(=O)(=O)NC(=O)NC2C3CCC(C)(C2O)C3(C)C)cc1 (stereo unspecified) [Glibornuride] | 9.79
38 | CCOP(=S)(OCC)Oc1ccc2c(C)c(Cl)c(=O)oc2c1 [Coumaphos] | 11.2
39 | COC(=O)COc1ccc(Cl)cc1Cl [2.4-D-methylester] | 9.61
40 | COP(=S)(OC)Oc1ccc(C#N)cc1 [Cyanophos] | 8.27
41 | CCOC(=O)C(O)(c1ccc(Cl)cc1)c1ccc(Cl)cc1 [Chlorobenzilate] | 11.7
42 | CCCCCn1cc(C(=O)Nc2cccc3ccccc23)c2ccccc21 [NNEI] | 11.7
43 | CN(CC=CC#CC(C)(C)C)Cc1cccc2ccccc12 [Terbinafine] | 11
44 | CCOc1cc(C(C)(C)C)ccc1C1COC(c2c(F)cccc2F)=N1 (stereo unspecified) [Etoxazole] | 12.8

Row | SMILES | LC retention time [min]
45 | CNC(C)Cc1ccc(O)c(OC)c1 (stereo unspecified) [HMMA] | 3.19
46 | O=S(=O)(c1ccc(Cl)cc1)c1cc(Cl)c(Cl)cc1Cl [Tetradifon] | 12.2
47 | CC(C)(C)NCC(O)c1cc(Cl)c(N)c(Cl)c1 (stereo unspecified) [Clenbuterol] | 4.76
48 | COc1cc2c(cc1OC)CC(=O)N(CCCN(C)CC1Cc3cc(OC)c(OC)cc31)CC2 (stereo unspecified) [Ivabradine] | 5.02
49 | CCOC(=O)C(CCc1ccccc1)NC(C)C(=O)N1C(C(=O)O)CC2CCCC21 (stereo unspecified) [Ramipril] | 8.56
50 | CCS(=O)(=O)c1cccnc1S(=O)(=O)NC(=O)Nc1nc(OC)cc(OC)n1 [Rimsulfuron] | 7.09
51 | CN(C(=O)COc1nc2ccccc2s1)c1ccccc1 [Mefenacet] | 9.83
52 | Cc1cc(Cl)ccc1OCCCC(=O)O [MCPB] | 10.1
53 | CC(F)CCCn1cc(C(=O)C2C(C)(C)C2(C)C)c2ccccc21 (stereo not drawn) [XLR-11 Isomer] | 11.6
54 | CCNC1CC(C)S(=O)(=O)c2sc(S(N)(=O)=O)cc21 (stereo unspecified) [Dorzolamide] | 3.19
55 | CN1C(C(=O)Nc2ccccn2)=C(O)c2ccccc2S1(=O)=O [Piroxicam] | 6.84
56 | C=CCN(CC=C)C(=O)C(Cl)Cl [Dichlormid] | 7.18
57 | CNC(C)C(=O)c1ccc2c(c1)OCO2 (stereo unspecified) [Methylone (MDMC)] | 3.81
58 | O=S(=O)(O)NC1CCCCC1 [Cyclamic acid] | 6.99
59 | COc1ccc(C(=CC(=O)N2CCOCC2)c2ccc(Cl)cc2)cc1OC [Dimethomorph] | 9.22
60 | CCC1(c2cccc(O)c2)CCCCN(C)C1 (stereo unspecified) [Meptazinol] | 4.74
61 | CCOP(=S)(OCC)SC1OCCOC1SP(=S)(OCC)OCC (stereo unspecified) [Dioxathion] | 12.1
62 | O=P1(NCCCl)OCCCN1CCCl (stereo unspecified) [Ifosfamid] | 5.89
63 | Cc1c(OCC(F)(F)F)ccnc1CS(=O)c1nc2ccccc2[nH]1 (stereo unspecified) [Lansoprazole] | 8.38
64 | C=CC=CCC1=C(C)C(OC(=O)C2C(C=C(C)C(=O)OC)C2(C)C)CC1=O (stereo unspecified) [Pyrethrin II] | 11.7
65 | O=c1n(CCCN2CCN(c3cccc(Cl)c3)CC2)nc2ccccn12 [Trazodone] | 6.48
66 | CCS(=O)(=O)CCn1c([N+](=O)[O-])cnc1C [Tinidazole] | 3.86
